According to US20150197497A1, “SELECTIVE INHIBITORS OF HISTONE DEACETYLASE ISOFORM 6 AND METHODS THEREOF” (DANA-FARBER CANCER INSTITUTE, INC., priority 2011, published 2015):
pEC50, pIC50: −log10 of the molar value.

How the values were obtained:
[1] = test system: acetylated tubulin; experiment: High-content image analysis of induction of acetylated tubulin in A549 cells; settings: for levels of acetylated tubulin, dose response (in words) / AcHistone/AcTubulin in cell selectivity toward HDAC6: A549 cells; for levels of acetylated tubulin, dose response (in words): FIG. 11; for pEC50: Homo sapiens, A549, 8 h, read-out: EC50 for half-maximal induction of acetylated tubulin (AcTubulin); for AcHistone/AcTubulin in cell selectivity toward HDAC6: ratio of EC50 acetylated histone to EC50 acetylated tubulin
Method: Cells were treated with each test HDACi compound with an automated pin transfer instrument (Janus, Perkin Elmer) and incubated for 8 hours. […] Fixation solution was aspirated and 90 μL of washing solution (0.1% Triton X-100 in PBS) was added prior to 10 minute incubation at 4° C. Washing solution was aspirated and cells were incubated at 4° C. for about 1 hour in blocking solution (0.1% Triton X-100+2% BSA in PBS). Washing solution was aspirated, and cells were incubated for about 1 hour at 4° C. in primary antibody for acetylated-tubulin (Sigma T7451) and acetylated-histone (Cell Signaling #9441L) at a 1:1000 dilution in blocking solution. Primary antibody solution was aspirated, and cells were washed three times in 90 μL of washing solution. […] Secondary antibody and nuclear staining solution was aspirated and cells were washed three times in 90 μL of washing solution. After the third wash, 50 μL of PBS was added to each well. Image acquisition was done on a high content imaging microscope (ImageXpress Micro, Molecular Devices), and image analysis (MetaXpress, Molecular Devices) was performed to obtain average acetylated-tubulin and acetylated-histone signal per cell based on treatment. Replicate experimental data from incubations with inhibitor were normalized to DMSO controls.

[2] = target: T1, HDAC7 (Homo sapiens, UniProt Q8WUI4); experiment: In vitro HDAC enzyme inhibition assay, HDAC7; type: biochemical; settings: for HDAC7/HDAC6 in vitro selectivity: ratio of IC50 for HDAC7 relative to that of HDAC6; for pIC50: recombinant full-length HDAC7, substrate MAZ1675 22 μM
T1 construct: Recombinant, full-length HDAC protein (BPS Biosciences) was incubated with fluorophore conjugated substrate; purchased BPS Biosciences
T1 sequence (Q8WUI4 1-952): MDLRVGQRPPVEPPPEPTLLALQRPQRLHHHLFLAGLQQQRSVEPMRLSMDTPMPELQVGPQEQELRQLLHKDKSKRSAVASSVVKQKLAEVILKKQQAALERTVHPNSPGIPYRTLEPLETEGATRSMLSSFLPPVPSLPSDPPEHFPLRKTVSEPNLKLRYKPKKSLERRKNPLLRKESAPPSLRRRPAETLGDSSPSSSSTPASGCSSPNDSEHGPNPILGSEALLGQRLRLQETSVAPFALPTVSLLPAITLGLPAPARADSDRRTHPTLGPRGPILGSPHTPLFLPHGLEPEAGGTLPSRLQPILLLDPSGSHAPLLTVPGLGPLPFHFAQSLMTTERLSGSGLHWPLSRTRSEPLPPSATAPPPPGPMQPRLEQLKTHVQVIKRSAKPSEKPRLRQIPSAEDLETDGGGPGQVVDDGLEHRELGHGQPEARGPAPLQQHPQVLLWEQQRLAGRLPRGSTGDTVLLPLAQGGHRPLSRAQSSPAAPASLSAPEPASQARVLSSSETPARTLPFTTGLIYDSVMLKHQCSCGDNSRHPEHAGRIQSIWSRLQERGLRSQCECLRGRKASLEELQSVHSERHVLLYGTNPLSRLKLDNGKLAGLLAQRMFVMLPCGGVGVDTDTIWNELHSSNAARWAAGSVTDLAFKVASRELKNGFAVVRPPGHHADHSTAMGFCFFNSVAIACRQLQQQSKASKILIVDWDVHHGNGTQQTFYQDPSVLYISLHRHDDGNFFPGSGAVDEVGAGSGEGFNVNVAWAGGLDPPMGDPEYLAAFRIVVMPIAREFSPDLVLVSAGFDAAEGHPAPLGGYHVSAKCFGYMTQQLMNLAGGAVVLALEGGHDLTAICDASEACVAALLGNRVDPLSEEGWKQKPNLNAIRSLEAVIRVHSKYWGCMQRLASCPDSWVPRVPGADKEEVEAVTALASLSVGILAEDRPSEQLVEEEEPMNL
Method: (§1) In vitro Histone Deacetylase enzyme assays were performed using Class I (isoforms: HDAC1, HDAC2, HDAC3 and HDAC8), class IIa (isoforms: HDAC4, HDAC5, HDAC7 and HDAC9) and class IIb (isoform HDAC6).
(§2) HDAC activities were determined in vitro with an optimized homogenous assay performed in a 384-well plate. Recombinant, full-length HDAC protein (BPS Biosciences) was incubated with fluorophore conjugated substrate, MAZ1600 and MAZ1675, at Km=[S]. […] Reactions were performed in assay buffer (50 mM HEPES, 100 mM KCl, 0.001% Tween-20, 0.05% BSA, 200 μM tris(2-carboxyethyl)phosphine (TCEP), pH 7.4) and followed for fluorogenic release of 7-amino-4-methylcoumarin from substrate upon deacetylase and trypsin enzymatic activity. Fluorescence measurements were obtained every five minutes using a multilabel plate reader and plate-stacker (Envision; Perkin-Elmer). Each plate was analyzed by plate repeat, and the first derivative within the linear range was imported into analytical software (Spotfire DecisionSite and GraphPad Prism). Replicate experimental data from incubations with inhibitor were normalized to controls.

[3] = target: T2, HDAC3 (Homo sapiens, UniProt O15379); experiment: In vitro HDAC enzyme inhibition assay, HDAC3; type: biochemical; settings: for HDAC3/HDAC6 in vitro selectivity: ratio of IC50 for HDAC3 relative to that of HDAC6; for pIC50: recombinant full-length HDAC3, substrate MAZ1600 9 μM
T2 construct: Recombinant, full-length HDAC protein (BPS Biosciences) was incubated with fluorophore conjugated substrate; purchased BPS Biosciences
T2 sequence (O15379 whole entry): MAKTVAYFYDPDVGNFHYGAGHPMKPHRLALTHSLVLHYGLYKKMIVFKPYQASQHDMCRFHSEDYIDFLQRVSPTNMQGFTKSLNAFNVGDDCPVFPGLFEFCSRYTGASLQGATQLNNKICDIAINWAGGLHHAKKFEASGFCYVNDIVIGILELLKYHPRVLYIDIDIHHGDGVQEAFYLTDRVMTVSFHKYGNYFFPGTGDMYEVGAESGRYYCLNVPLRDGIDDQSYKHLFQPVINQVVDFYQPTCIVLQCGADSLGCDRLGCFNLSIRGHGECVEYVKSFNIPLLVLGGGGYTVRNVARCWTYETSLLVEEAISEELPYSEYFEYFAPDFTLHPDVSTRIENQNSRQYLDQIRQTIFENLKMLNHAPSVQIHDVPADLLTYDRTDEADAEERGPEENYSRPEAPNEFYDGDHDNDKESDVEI
T2 sequence (Q9Y618 395-489 partner limits assumed): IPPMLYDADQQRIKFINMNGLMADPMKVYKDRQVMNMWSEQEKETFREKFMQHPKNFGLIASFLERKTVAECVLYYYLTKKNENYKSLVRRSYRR
Method: as §1, §2

[4] = target: T3, HDAC4 (Homo sapiens, UniProt P56524); experiment: In vitro HDAC enzyme inhibition assay, HDAC4; type: biochemical; settings: for HDAC4/HDAC6 in vitro selectivity: ratio of IC50 for HDAC4 relative to that of HDAC6; for pIC50: recombinant full-length HDAC4, substrate MAZ1675 10 μM
T3 construct: Recombinant, full-length HDAC protein (BPS Biosciences) was incubated with fluorophore conjugated substrate; purchased BPS Biosciences
T3 sequence (P56524 whole entry): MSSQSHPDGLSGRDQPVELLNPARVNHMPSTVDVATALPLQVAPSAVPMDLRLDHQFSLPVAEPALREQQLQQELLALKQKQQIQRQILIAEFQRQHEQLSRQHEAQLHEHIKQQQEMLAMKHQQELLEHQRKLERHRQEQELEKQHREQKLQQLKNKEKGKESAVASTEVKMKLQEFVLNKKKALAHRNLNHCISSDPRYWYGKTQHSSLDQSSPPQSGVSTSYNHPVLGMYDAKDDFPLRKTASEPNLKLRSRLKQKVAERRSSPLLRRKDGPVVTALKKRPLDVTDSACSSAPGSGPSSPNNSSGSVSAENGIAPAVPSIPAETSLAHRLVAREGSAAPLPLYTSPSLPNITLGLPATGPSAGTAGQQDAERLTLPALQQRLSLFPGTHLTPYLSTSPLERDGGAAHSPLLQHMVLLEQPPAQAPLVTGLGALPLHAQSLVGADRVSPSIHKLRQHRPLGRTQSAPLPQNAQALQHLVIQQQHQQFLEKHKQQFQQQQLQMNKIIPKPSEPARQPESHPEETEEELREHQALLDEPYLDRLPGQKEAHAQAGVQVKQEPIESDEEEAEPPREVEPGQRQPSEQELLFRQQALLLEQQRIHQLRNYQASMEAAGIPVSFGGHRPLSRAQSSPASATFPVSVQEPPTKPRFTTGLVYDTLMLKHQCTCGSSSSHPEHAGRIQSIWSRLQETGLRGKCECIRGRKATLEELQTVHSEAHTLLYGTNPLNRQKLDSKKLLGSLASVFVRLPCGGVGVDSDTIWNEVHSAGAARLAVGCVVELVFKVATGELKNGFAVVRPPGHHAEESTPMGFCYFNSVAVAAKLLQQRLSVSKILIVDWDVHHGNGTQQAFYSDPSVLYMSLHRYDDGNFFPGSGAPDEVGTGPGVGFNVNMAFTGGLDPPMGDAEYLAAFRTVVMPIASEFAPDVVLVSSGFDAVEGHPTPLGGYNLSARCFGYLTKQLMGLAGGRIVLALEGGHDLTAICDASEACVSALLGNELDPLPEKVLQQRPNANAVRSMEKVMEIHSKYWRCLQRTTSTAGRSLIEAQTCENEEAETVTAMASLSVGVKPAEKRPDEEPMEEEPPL
Method: as §1, §2

[5] = target: T4, HDAC6 (Homo sapiens, UniProt Q9UBN7); experiment: In vitro HDAC enzyme inhibition assay, HDAC6; type: biochemical; settings: recombinant full-length HDAC6, substrate MAZ1600 9 μM
T4 construct: Recombinant, full-length HDAC protein (BPS Biosciences) was incubated with fluorophore conjugated substrate; purchased BPS Biosciences
T4 sequence (Q9UBN7 1-1215): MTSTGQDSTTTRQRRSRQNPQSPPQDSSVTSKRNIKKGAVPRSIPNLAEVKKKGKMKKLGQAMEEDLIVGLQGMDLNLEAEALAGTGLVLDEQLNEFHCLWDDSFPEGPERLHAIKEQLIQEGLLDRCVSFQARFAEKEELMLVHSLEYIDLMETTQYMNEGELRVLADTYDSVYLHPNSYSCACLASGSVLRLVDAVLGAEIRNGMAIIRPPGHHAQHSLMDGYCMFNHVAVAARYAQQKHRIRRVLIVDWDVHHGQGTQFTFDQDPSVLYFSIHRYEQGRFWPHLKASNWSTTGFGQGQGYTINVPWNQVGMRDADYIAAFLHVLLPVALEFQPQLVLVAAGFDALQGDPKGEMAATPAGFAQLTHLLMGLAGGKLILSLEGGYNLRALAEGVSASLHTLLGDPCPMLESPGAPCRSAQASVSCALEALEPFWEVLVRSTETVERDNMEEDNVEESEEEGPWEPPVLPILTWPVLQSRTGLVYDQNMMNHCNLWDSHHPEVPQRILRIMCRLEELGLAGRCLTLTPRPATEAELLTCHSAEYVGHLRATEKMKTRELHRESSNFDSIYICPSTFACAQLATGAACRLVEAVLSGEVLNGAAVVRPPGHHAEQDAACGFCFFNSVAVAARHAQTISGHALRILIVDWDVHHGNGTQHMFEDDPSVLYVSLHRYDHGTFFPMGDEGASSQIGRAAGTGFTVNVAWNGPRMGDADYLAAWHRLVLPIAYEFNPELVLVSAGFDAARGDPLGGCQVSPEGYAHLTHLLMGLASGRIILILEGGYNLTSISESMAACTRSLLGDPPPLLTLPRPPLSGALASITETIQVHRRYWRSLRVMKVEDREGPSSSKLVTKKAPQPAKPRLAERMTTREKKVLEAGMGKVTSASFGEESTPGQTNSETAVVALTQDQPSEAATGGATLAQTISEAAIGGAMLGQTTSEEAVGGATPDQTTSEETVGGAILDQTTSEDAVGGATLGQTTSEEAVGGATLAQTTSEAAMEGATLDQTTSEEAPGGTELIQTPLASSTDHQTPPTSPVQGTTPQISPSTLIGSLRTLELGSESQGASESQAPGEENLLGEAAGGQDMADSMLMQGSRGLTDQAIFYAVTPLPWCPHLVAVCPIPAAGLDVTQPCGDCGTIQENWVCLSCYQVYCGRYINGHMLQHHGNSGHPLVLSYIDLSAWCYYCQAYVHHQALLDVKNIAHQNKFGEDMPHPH
Method: as §1, §2

| SMILES | levels of acetylated tubulin, dose response (in words) [1] | pEC50 [1] | AcHistone/AcTubulin in cell selectivity toward HDAC6 [1] | HDAC7/HDAC6 in vitro selectivity [2] | pIC50 [2] | HDAC3/HDAC6 in vitro selectivity [3] | pIC50 [3] | HDAC4/HDAC6 in vitro selectivity [4] | pIC50 [4] | pIC50 [5] |
| --- | --- | --- | --- | --- | --- | --- | --- | --- | --- | --- |
| O=C(NO)c1ccc(Cn2c(C(F)(F)F)nc3ccccc32)cc1 [A1, N-hydroxy-4-((2-(trifluoromethyl)-1H-benzo[d]imidazol-1-yl)methyl)benzamide] | dose-dependent increase | 6.34 | 14.01 | 255 | 6.92 | 3791 | 5.75 | 2948 | 5.86 | 9.33 |
| Cc1ccc2c(c1)nc(C(F)(F)F)n2Cc1ccc(C(=O)NO)cc1 [A2, N-hydroxy-4-((5-methyl-2-(trifluoromethyl)-1H-benzo[d]imidazol-1-yl)methyl)benzamide] |  | 7.00 | 2.411 | 348 | 6.97 | 3718 | 5.94 | 2775 | 6.07 | 9.51 |
| O=C(NO)c1ccc(Cn2c(C(F)(F)F)nc3cc(F)ccc32)cc1 [A3, 4-((5-fluoro-2-(trifluoromethyl)-1H-benzo[d]imidazol-1-yl)methyl)-N-hydroxybenzamide] |  | 7.11 | 7.664 | 484 | 6.56 | 3126 | 5.75 | 1901 | 5.96 | 9.24 |
| O=C(NO)c1ccc(Cn2c(C(F)(F)F)nc3cc(Cl)ccc32)cc1 [A4, 4-((5-chloro-2-(trifluoromethyl)-1H-benzo[d]imidazol-1-yl)methyl)-N-hydroxybenzamide] | dose-dependent increase | 6.56 | 54.11 | 323 | 6.43 | 1096 | 5.90 | 1188 | 5.86 | 8.94 |
| O=C(NO)c1ccc(Cn2c(C(F)(F)F)nc3cc(Br)ccc32)cc1 [A5, 4-((5-bromo-2-(trifluoromethyl)-1H-benzo[d]imidazol-l-yl)methyl)-N-hydroxybenzamide] |  | 6.72 | 10.17 | 735 | 6.64 | 2529 | 6.11 | 2783 | 6.06 | 9.51 |
| COc1ccc2c(c1)nc(C(F)(F)F)n2Cc1ccc(C(=O)NO)cc1 [A6, N-hydroxy-4-((5-methoxy-2-(trifluoromethyl)-1H-benzo[d]imidazol-1-yl)methyl)benzamide] |  | 6.67 | 12.2081 | 1058 | 6.38 | 2067 | 6.09 | 2414 | 6.02 | 9.41 |
| O=C(NO)c1ccc(Cn2cnc3ccccc32)cc1 [A7] |  | 6.80 | 1.459 | 2606 | 6.59 | 4791 | 6.33 | 17962 | 5.76 | 10.01 |
| Cc1ccc2c(c1)ncn2Cc1ccc(C(=O)NO)cc1 [A8, N-hydroxy-4-((5-methyl-1H-benzo[d]imidazol-1-yl)methyl)benzamide] |  | 6.98 | 0.7591 | 1098 | 6.38 | 1596 | 6.22 | 7247 | 5.56 | 9.42 |
